# Data published in patent publication US20160346291A1, “COMPOSITIONS AND THERAPEUTIC METHODS FOR ACCELERATED PLAQUE REGRESSION” (Resverlogix Corp, priority 2013, published 2016).
# Tested on: ApoA-I mRNA
# Assay: ApoA-I mRNA quantitation in HepG2 cells (real-time PCR)
# Assay type: cell-based
# Set-up: key: Active: An active compound is one that causes a >15% increase in ApoA-I mRNA at a concentration less than or equal to 100 uM
# Conditions: concentration less than or equal to 100 uM, fold induction relative to DMSO control
# Protocol: At time of harvesting, the spent media was removed from the HepG2 cells and immediately placed on ice (for immediate use) or at −80° C. (for future use) in ApoA-I and albumin ELISAs. The cells remaining in the plate wells were rinsed in 200 μL PBS. PBS was carefully removed to avoid removing any loosely attached cells.
# Once the PBS was removed, 85 μL cell lysis solution was added to the cells in each well and incubated for 5-10 min at room temperature, to allow for complete cell lysis and detachment. mRNA was then prepared using the “mRNA Catcher PLUS plate” from Invitrogen, according to the protocol supplied. After the last wash, as much wash buffer as possible was aspirated without allowing the wells to dry. Elution Buffer (E3, 80 μL) was then added to each well. mRNA was then eluted by incubating the mRNA Catcher PLUS plate with Elution Buffer for 5 min at 68° C. and then immediately placing the plate on ice.
# The eluted mRNA was isolated and then used in a one-step real-time […]-PCR reaction, using components of the Ultra Sense Kit together with Applied Biosystems primer-probe mixes. Real-time PCR data was analyzed, using the Ct values, to determine the fold induction of each unknown sample, relative to the control (that is, relative to the control for each independent DMSO concentration).
# The following compounds of Formula I were evaluated in this assay. An active compound is one that causes a >15% increase in ApoA-I mRNA at a concentration less than or equal to 100 uM.
row,Structure (SMILES),Effect on ApoA-I mRNA levels
1,"Cc1cc(-c2nc3ccc(Br)cc3c(=O)[nH]2)cc(C)c1OCCO [6-bromo-2-(4-(2-hydroxyethoxy)-3,5-dimethylphenyl)quinazolin-4(3H)-one]",Active
2,"COc1cc(OC)c2c(=O)[nH]c(-c3ccc(CCC(=O)O)cc3)nc2c1 [3-(4-(5,7-dimethoxy-4-oxo-3,4-dihydroquinazolin-2-yl)phenyl)propanoic acid]",Active
3,"COc1cc(OC)c2c(=O)[nH]c(-c3ccc(O)c(CCO)c3)nc2c1 [2-(4-hydroxy-3-(2-hydroxyethyl)phenyl)-5,7-dimethoxyquinazolin-4(3H)-one]",Active
4,"O=C(O)COc1ccc(-c2nc3ccccc3c(=O)[nH]2)cc1 [2-(4-(4-oxo-3,4-dihydroquinazolin-2-yl)phenoxy)acetic acid]",Active
5,"COc1cc(OC)c2c(=O)[nH]c(-c3cc(C)c(OCCNC(=O)C(C)C)c(C)c3)nc2c1 [N-(2-(4-(5,7-dimethoxy-4-oxo-3,4-dihydroquinazolin-2-yl)-2,6-dimethylphenoxy)ethyl)isobutyramide]",Active
6,"Cc1cc(-c2nc3ccc(Br)cc3c(=O)[nH]2)cc(C)c1OCCO[Si](C)(C)C(C)(C)C [6-bromo-2-(4-(2-(tert-butyldimethylsilyloxy)ethoxy)-3,5-dimethylphenyl)quinazolin-4(3H)-one]",Active
7,"COc1cc(OC)c2c(=O)[nH]c(-c3ccc(OCC(=O)O)c(OC)c3)nc2c1 [2-(4-(5,7-dimethoxy-4-oxo-3,4-dihydroquinazolin-2-yl)-2-methoxyphenoxy)acetic acid]",Active
8,"CCN1CCN(Cc2ccc(-c3nc4cc(OC)cc(OC)c4c(=O)[nH]3)cc2)CC1 [2-(4-((4-ethylpiperazin-1-yl)methyl)phenyl)-5,7-dimethoxyquinazolin-4(3H)-one]",Active
9,"COc1cc(O)nc2cc(-c3cc(C)c(O)c(C)c3)[nH]c(=O)c12 [2-hydroxy-7-(4-hydroxy-3,5-dimethylphenyl)-4-methoxy-1,6-naphthyridin-5(6H)-one]",Active
10,Cl.Cl.Cl.Cl.N=C(N)NCCCC(N)C(=O)Oc1ccc(-c2cc3ccccc3cn2)cc1 (centres unmarked) [4-(Isoquinolin-3-yl)phenyl 2-amino-5-guanidinopentanoate tetrahydrochloride],Active
11,"COc1cc(OC)c2c(=O)[nH]c(-c3cc(C)c(OCCO)c(C)c3)nc2n1 [2-(4-(2-hydroxyethoxy)-3,5-dimethylphenyl)-5,7-dimethoxypyrido[2,3-d]pyrimidin-4(3H)-one]",Active
12,"COc1cc(OC)c2c(=O)[nH]c(-c3cc(C)c(O)c(C)c3)nc2n1 [2-(4-hydroxy-3,5-dimethylphenyl)-5,7-dimethoxypyrido[2,3-d]pyrimidin-4(3H)-one]",Active
13,"COc1ccc(S(=O)(=O)NCCOc2c(C)cc(-c3nc4cc(OC)cc(OC)c4c(=O)[nH]3)cc2C)cc1 [N-(2-(4-(5,7-dimethoxy-4-oxo-3,4-dihydroquinazolin-2-yl)-2,6-dimethylphenoxy)ethyl)-4-methoxybenzenesulfonamide]",Active
14,"CC(=O)Nc1ccc2nc(-c3cc(C)c(OCCO)c(C)c3)[nH]c(=O)c2c1 [N-(2-(4-(2-hydroxyethoxy)-3,5-dimethylphenyl)-4-oxo-3,4-dihydroquinazolin-6-yl)acetamide]",Active
15,"COc1cc(OC)c2c(=O)[nH]c(-c3cc(C)c(/N=C/N(C)C)c(C)c3)nc2c1 [(E)-N′-(4-(5,7-dimethoxy-4-oxo-3,4-dihydroquinazolin-2-yl)-2,6-dimethylphenyl)-N,N-dimethylformimidamide]",Active
16,"COc1cc(OC)c2c(=O)[nH]c(-c3ccc(OCCO)c(C)c3)nc2c1 [2-(4-(2-hydroxyethoxy)-3-methylphenyl)-5,7-dimethoxyquinazolin-4(3H)-one]",Active
17,"N=C(N)NCCCC(N)C(=O)Oc1ccc(-c2cc3ccccc3c(=O)[nH]2)cc1 (centres unmarked) [4-(1-Oxo-1,2-dihydroisoquinolin-3-yl)phenyl 2-amino-5-guanidinopentanoate]",Active
18,COc1cccc2c(=O)[nH]c(-c3ccc(O)c(F)c3)cc12 [3-(3-fluoro-4-hydroxyphenyl)-5-methoxyisoquinolin-1(2H)-one],Inactive
19,"COc1cc2nc(-c3ccc4c(c3)OCCO4)[nH]c(=O)c2cc1OC [2-(2,3-dihydrobenzo[b][1,4]dioxin-6-yl)-6,7-dimethoxyquinazolin-4(3H)-one]",Active
20,O=c1[nH]c(-c2ccc(O)cc2)cc2ccccc12 [3-(4-Hydroxyphenyl)-2H-isoquinolin-1-one],Active
21,"COc1cc(OC)c2c(=O)[nH]c(-c3cc(C)c(OCCNS(=O)(=O)c4ccc(Cl)cc4)c(C)c3)nc2c1 [4-chloro-N-(2-(4-(5,7-dimethoxy-4-oxo-3,4-dihydroquinazolin-2-yl)-2,6-dimethylphenoxy)ethyl)benzenesulfonamide]",Active
22,"COc1cc(OC)c2c(=O)[nH]c(-c3cccc([N+](=O)[O-])c3)nc2c1 [5,7-dimethoxy-2-(3-nitrophenyl)quinazolin-4(3H)-one]",Inactive
23,"COc1cc2cc(-c3cc(C)c(O)c(C)c3)n(C)c(=O)c2c(OC)c1C [3-(4-hydroxy-3,5-dimethylphenyl)-6,8-dimethoxy-2,7-dimethylisoquinolin-1(2H)-one]",Active
24,"COc1cc(OC)c2c(=O)[nH]c(-c3cc(C)c(OCCNC(=O)c4ccc(C)cc4)c(C)c3)nc2c1 [N-(2-(4-(5,7-Dimethoxy-4-oxo-3,4-dihydroquinazolin-2-yl)-2,6-dimethylphenoxy)ethyl)-4-methylbenzamide]",Active
25,"COc1cc(OC)c2c(=O)[nH]c(-c3cc(C)c(OCCN4CCOCC4)c(C)c3)nc2c1 [2-(3,5-dimethyl-4-(2-morpholinoethoxy)phenyl)-5,7-dimethoxyquinazolin-4(3H)-one]",Active
26,"COc1cc(OC)c2c(=O)[nH]c(-c3cccc(-c4ccc(SC)cc4)n3)nc2c1 [5,7-dimethoxy-2-(6-(4-(methylthio)phenyl)pyridin-2-yl)quinazolin-4(3H)-one]",Active
27,"COc1cc(OC)c2c(=O)[nH]c(-c3ccc(N(C)C)c4ccccc34)nc2c1 [2-(4-(dimethylamino)naphthalene-1-yl)-5,7-dimethoxyquinazolin-4(3H)-one]",Active
28,"COCCOc1c(C)cc(-c2nc3cc(OC)cc(OC)c3c(=O)[nH]2)cc1C [5,7-dimethoxy-2-(4-(2-methoxyethoxy)-3,5-dimethylphenyl)quinazolin-4(3H)-one]",Active
29,"COc1cc(OC)c2cnc(-c3cc(C)c(O)c(C)c3)cc2c1 [4-(6,8-dimethoxyisoquinolin-3-yl)-2,6-dimethylphenol]",Active
